Test results published in US5672603A, “Apoptosis regulating composition” (Otsuka Pharmaceutical Co., Ltd., priority 1991, dated 1997).

How the values were obtained:
[1] = system: HL-60 cells; assay: Reactivity of HL-60 cells with anti-CD33 monoclonal antibody My9 (flow cytometry); assay type: cell-based, human; settings: day 27, control 97
Method: The monoclonal antibody My9 (Coulter) capable of specifically reacting with immature granulocytes was dissolved by adding 0.5 ml of distilled water per vial.
HL-60 cells prepared as described above under (1) were cultivated in the same manner as in a). On day 27, the cell concentration was adjusted to 1×10^6 cells/ml and 100 μl of each aliquot was reacted with 10 μl of fluorescein (FITC)-labeled My9, followed by flow cytometry.

[2] = system: W/BF1 :(NZW×BXSB)F1 mice; assay: Blood cell analysis in autoimmune disease mice; assay type: in vivo
Method: W/BF1 :(NZW×BXSB)F1 mice were used at the age of 14 weeks (purchased from Kiwa Experimental Animal). Groups of 10 mice were used in each experiment.
The mice in respective groups were given a diet (Oriental Yeast), which is usually given to this kind of mice, and water.
Compound 1 (Lot No. 9D87M) was used as suspended in a 0.5% solution of carborymethylcellulose (CMC, Cellogan). Compound 1 was administered to mice by oral garage in doses of 100 and 300 mg/kg body weight/day for 6 weeks from 14 weeks of age to 20 weeks of age according to the 5-day administration and 2-day cessation schedule. As a control, an untreated group was provided. […] Statistic analysis was performed by the generalized Wilcoxon test with respect to the untreated group.
(2) For blood cell analysis, the blood was sampled from the fundus oculi at the age of 14, 16, 18 and 20 weeks. Changes in blood cell (white blood cell, red blood cell and platelet) counts were determined using an automatic blood cell analyzer (Coulter JR, Coulter). The differential (neutrophil and 11 lymphocyte) counts were determined using blood smears stained with Wright-Giemsa stain. For statistical analysis, Student's t test was used, taking the untreated group as control, on each blood sampling day.

[3] = system: CMK cells (platelet-associated antigen, glycoprotein IIb/IIIa); assay: Expression of platelet-associated antigen of CMK cells (Plt-1 antibody); assay type: cell-based, human; settings: 30 μg/ml
Method: Compound 1 was dissolved in 1N hydrochloric acid and diluted with fetal calf serum (FCS, Gibco) to give a 1 mg/ml solution. This solution was added to RPMI-1640 medium (Flow Laboratories) supplemented 10% FCS and the mixture was neutralized with 1N NaOH and adjusted to a concentration of 30 μg/ml before use.
CMK cells were established by T. Sato et al. from patients with acute megakaryocytic leukemia. They are known to react with anti-platelet antibodies (anti-glycoprotein IIb/IIIa antibody, anti-glycoprotein Ib antibody and Plt-1 antibody). Moreover, it has mega-karyocyte-like properties, such as formation of α granules and a demarcation membrane in the cytoplasm. Therefore, these cells have been used for the analysis of the growth and differentiation of megakaryocytes [Sato, T., et al., Exp. Hematol., 15, 495 (1987); Sunami, S., et al., Blood, 70., 368 (1987); Komatsu, N., et al., Blood, 74(1), 42-48 (1989); Fuse, A., et al., British J. Haematology, 77, 32-36 (1991); Acta Haematologia Japonica 53(2), 294-295, 317-318 (1990)].
CMK cells were supplied by Dr. Takelruki Sato at the Department of Pediatrics, Chiba University School of Medicine. The cells, 5×10^4 cells/ml, were cultured in RPMI-1640 medium supplemented 10% FCS and subcultured every four days.
CMK cells, 1×10^5 cells/ml, were incubated in 10% FCS-added RPMI-1640 medium, containing 30 μg/ml of Compound 1, for 4 days and the expression of platelet-associated antigen on the cell surface was determined by flow cytometry (Coulter) using FITC-labeled Plt-1 antibody (Coulter). The medium containing no Compound 1 was used as a solvent control.
For the analysis of cell surface antigen, 1×10^6 cells/100 μl of CFIK cells were taken into a tube (Fischer) and reacted with 5 μl of FITC-labeled Plt-1 antibody at 4° C. for 30 minutes. The reaction mixture was washed three times with phosphate buffer containing 0.1% bovine serum albumin and determined for the percentage positive cells and fluorescence intensity.
The above-mentioned Plt-1 antibody (Coulter) is an antibody recognizing the platelet-associated antigen, glycoprotein IIb/IIIa and has been reported to increase with differentiation or maturation of CMK cells [Komatsu, N., et al., Blood, 74(1), 42-48 (1989)].

`COc1ccc(C(=O)N2CCN(c3ccc4c(c3)CCC(=O)N4)CC2)cc1OC` [Compound 1, 6-[4-(3,4-Dimethoxybenzoyl)-1-piperazinyl]-3,4-dihydrocarbostyril] was tested, and the “Positive rate (%), anti-CD33 My9” value ([1]; 1.0 μg/ml) was 90%, the “Positive rate (%), anti-CD33 My9” value ([1]; 10 μg/ml) was 77% and the Lymphocytes ([2]; 100 mg/kg, 14 weeks of age) was 6.55 ± 1.11 ×10^3 /mm^3. For the same compound, the Neutrophils ([2]; 100 mg/kg, 14 weeks of age) was 0.97 ± 0.21 ×10^3 /mm^3, the Platelets ([2]; 100 mg/kg, 14 weeks of age) was 1225.2 ± 187.6 ×10^3 /mm^3 and the Red blood cells ([2]; 100 mg/kg, 14 weeks of age) was 9.08 ± 0.19 ×10^6 /mm^3. The White blood cells ([2]; 100 mg/kg, 14 weeks of age) was 7.53 ± 1.26 ×10^3 /mm^3, the Lymphocytes ([2]; 100 mg/kg, 16 weeks of age) was 9.83 ± 2.72 ×10^3 /mm^3 and the Neutrophils ([2]; 100 mg/kg, 16 weeks of age) was 3.01 ± 2.14 ×10^3 /mm^3. For the same compound, the Platelets ([2]; 100 mg/kg, 16 weeks of age) was 749.6 ± 116.6 ×10^3 /mm^3, the White blood cells ([2]; 100 mg/kg, 16 weeks of age) was 12.91 ± 4.76 ×10^3 /mm^3 and the Red blood cells ([2]; 100 mg/kg, 16 weeks of age, *P < 0.05) was 9.06 ± 0.19 ×10^6 /mm^3. The Lymphocytes ([2]; 100 mg/kg, 18 weeks of age) was 10.68 ± 3.78 ×10^3 /mm^3, the Neutrophils ([2]; 100 mg/kg, 18 weeks of age) was 5.82 ± 1.65 ×10^3 /mm^3 and the Platelets ([2]; 100 mg/kg, 18 weeks of age) was 524.0 ± 105.6 ×10^3 /mm^3. For the same compound, the Red blood cells ([2]; 100 mg/kg, 18 weeks of age) was 8.46 ± 0.34 ×10^6 /mm^3, the White blood cells ([2]; 100 mg/kg, 18 weeks of age) was 16.49 ± 4.98 ×10^3 /mm^3 and the Lymphocytes ([2]; 100 mg/kg, 20 weeks of age) was 8.70 ± 1.02 ×10^3 /mm^3. For the same compound, the Neutrophils ([2]; 100 mg/kg, 20 weeks of age) was 3.25 ± 1.06 ×10^3 /mm^3, the Platelets ([2]; 100 mg/kg, 20 weeks of age) was 341.1 ± 111.9 ×10^3 /mm^3 and the White blood cells ([2]; 100 mg/kg, 20 weeks of age) was 11.72 ± 1.71 ×10^3 /mm^3. For the same compound, the Red blood cells ([2]; 100 mg/kg, 20 weeks of age, *P < 0.05) was 8.29 ± 0.37 ×10^6 /mm^3, the “Inhibition of decrease in platelet count (in words)” value ([2]; 300 mg/kg/day, 20 weeks of age, vs untreated) was “significant inhibition” and the Lymphocytes ([2]; 300 mg/kg, 14 weeks of age) was 4.50 ± 0.63 ×10^3 /mm^3. For the same compound, the Neutrophils ([2]; 300 mg/kg, 14 weeks of age) was 0.79 ± 0.19 ×10^3 /mm^3, the Platelets ([2]; 300 mg/kg, 14 weeks of age) was 1316.8 ± 86.3 ×10^3 /mm^3 and the Red blood cells ([2]; 300 mg/kg, 14 weeks of age) was 9.17 ± 0.21 ×10^6 /mm^3. For the same compound, the White blood cells ([2]; 300 mg/kg, 14 weeks of age) was 5.46 ± 0.74 ×10^3 /mm^3, the Lymphocytes ([2]; 300 mg/kg, 16 weeks of age) was 7.01 ± 0.92 ×10^3 /mm^3 and the Neutrophils ([2]; 300 mg/kg, 16 weeks of age) was 1.86 ± 0.40 ×10^3 /mm^3. For the same compound, the Platelets ([2]; 300 mg/kg, 16 weeks of age) was 1055.8 ± 72.0 ×10^3 /mm^3, the Red blood cells ([2]; 300 mg/kg, 16 weeks of age) was 8.43 ± 0.30 ×10^6 /mm^3 and the White blood cells ([2]; 300 mg/kg, 16 weeks of age) was 9.36 ± 1.77 ×10^3 /mm^3. The Lymphocytes ([2]; 300 mg/kg, 18 weeks of age) was 6.16 ± 0.88 ×10^3 /mm^3, the Neutrophils ([2]; 300 mg/kg, 18 weeks of age) was 5.65 ± 2.77 ×10^3 /mm^3 and the Platelets ([2]; 300 mg/kg, 18 weeks of age) was 980.0 ± 114.4 ×10^3 /mm^3. For the same compound, the Red blood cells ([2]; 300 mg/kg, 18 weeks of age) was 8.83 ± 0.32 ×10^6 /mm^3, the White blood cells ([2]; 300 mg/kg, 18 weeks of age) was 11.90 ± 3.52 ×10^3 /mm^3 and the Lymphocytes ([2]; 300 mg/kg, 20 weeks of age) was 10.73 ± 5.81 ×10^3 /mm^3. The Neutrophils ([2]; 300 mg/kg, 20 weeks of age) was 2.24 ± 0.23 ×10^3 /mm^3, the Red blood cells ([2]; 300 mg/kg, 20 weeks of age) was 7.90 ± 0.30 ×10^6 /mm^3 and the White blood cells ([2]; 300 mg/kg, 20 weeks of age) was 12.97 ± 5.95 ×10^3 /mm^3. The Platelets ([2]; 300 mg/kg, 20 weeks of age, **P < 0.01) was 823.3 ± 24.5 ×10^3 /mm^3, the “Red blood cell count (in words)” value ([2]; compared with the platelet count result) was “A similar result was found for red blood cell count” and the “Effect on white blood cell count (in words)” value ([2]; mouse, in vivo) was “no effect on this parameter”. For the same compound, the “Change in percentage of Plt-1 positive cells (in words)” value [3] was “no change in the percentage of positive cells”, the Cell count ([3]; 4 days, solvent control 5.8) was 3.2 10^5 /ml and the “Plt-1 percentage positive cells (%)” value ([3]; 4 days, solvent control 96.1) was 96.5%. For the same compound, the activity at 30 µg/mL ([3]; Homo sapiens, CMK, 96 h, 4 days, solvent control 100, read-out: Plt-1 mean fluorescence intensity (%)) was 192% and the fold induction at 30 µg/mL ([3]; Homo sapiens, CMK, read-out: Increase in expression of platelet-associated antigen) was 2.
